Reference: patent EP0979098B1, “METHOD OF TREATING HYPERPROLACTINEMIA AND PROLACTINOMAS” (Cedars-Sinai Medical Center, priority 1997, dated 1998)
Positions of bridges follow the written chain, without caps; N, C: chain ends. Non-standard residues stand in square brackets, D forms with d. Residues, ends and D or L forms follow the SMILES beside them.

Tested on: Cells derived from six prolactin-secreting pituitary adenomas
Experiment: Prolactin secretion from cultured prolactinoma cells (immunoradiometric assay of PRL in medium)
Type: cell-based, human
Details: for effect on prolactin release (in words): adenomatous cell cultures of tumor 1, 3 hours; for response of prolactin secretion (in words): cells from the four large tumors (tumors 1, 2, 3 and 4); for suppressed prolactin release / effect on prolactin production (in words): tumor 4 cell cultures; for suppressed prolactin release: p<0.05

SMILES	effect on prolactin release (in words)	response of prolactin secretion (in words)	suppressed prolactin release	effect on prolactin production (in words)	Prolactin release inhibited versus controls (tumor 2 cell cultures, 10 nM, p < 0.0005)	suppressed prolactin (tumor 3 cell cultures, 10 nM and 100 nM, dose dependent, p < 0.05)
CC[C@@H]1NC(=O)[C@H](CCCCN)NC(=O)[C@@H](Cc2c[nH]c3ccccc23)NC(=O)[C@H](Cc2ccc(O)cc2)NC(=O)[C@@H](NC(=O)[C@H](N)Cc2ccccc2)CSSC[C@@H](C(=O)N[C@H](C(N)=O)[C@@H](C)O)NC1=O [BIM-23023]	did not affect prolactin release					
C[C@@H](O)[C@H](NC(=O)[C@H](Cc1ccccc1)NC(=O)[C@@H](NC(=O)[C@H](CCCCN)NC(=O)[C@@H](Cc1c[nH]c2ccccc12)NC(=O)[C@H](Cc1ccccc1)NC(=O)[C@H](Cc1ccccc1)NC(=O)[C@H](N)Cc1ccccc1)[C@@H](C)O)C(N)=O [BIM-23052, H-D-Phe-Phe-Phe-D-Trp-Lys-Thr-Phe-Thr-NH2] (H-[dF]FF[dW]KTFT-NH2)		suppression of prolactin secretion	more than 30%			
CC[C@@H]1NC(=O)[C@H](CCCCN)NC(=O)[C@@H](Cc2c[nH]c3ccccc23)NC(=O)[C@H](Cc2ccc(O)cc2)NC(=O)[C@@H](NC(=O)[C@@H](Cc2ccccc2)NC(=O)CN2CCN(CCO)CC2)CSSC[C@@H](C(=O)N[C@H](C(N)=O)[C@@H](C)O)NC1=O [BIM-23190]	did not affect prolactin release	failed to respond		modestly stimulated prolactin production		
CC[C@@H]1NC(=O)[C@H](CCCCN)NC(=O)[C@@H](Cc2c[nH]c3ccccc23)NC(=O)[C@H](Cc2ccc(O)cc2)NC(=O)[C@@H](NC(=O)[C@@H](Cc2ccccc2)NS(=O)(=O)CCN2CCN(CCO)CC2)CSSC[C@@H](C(=O)N[C@H](C(N)=O)[C@@H](C)O)NC1=O [BIM-23197]	did not affect prolactin release	failed to respond		modestly stimulated prolactin production		
C[C@@H](O)[C@@H]1NC(=O)[C@H](CCCCN)NC(=O)[C@@H](Cc2c[nH]c3ccccc23)NC(=O)[C@H](Cc2ccccc2)NC(=O)[C@H](Cc2ccccc2)NC(=O)[C@@H](N)CSSC[C@@H](C(N)=O)NC(=O)[C@H](Cc2ccccc2)NC1=O [BIM-23268] (H-CFF[dW]KTFC-NH2; disulfide 1-8)		suppression of prolactin secretion	more than 30%		38%	up to 29%
CC(C)[C@@H]1NC(=O)[C@H](CCCCN)NC(=O)[C@@H](Cc2c[nH]c3ccccc23)NC(=O)[C@H](Cc2ccc(O)cc2)NC(=O)[C@@H](NC(=O)[C@H](N)Cc2ccc3ccccc3c2)CSSC[C@@H](C(=O)N[C@H](C(N)=O)[C@@H](C)O)NC1=O [Lanreotide]	did not affect prolactin release	failed to respond				
C[C@@H](O)[C@@H]1NC(=O)[C@H](CCCCN)NC(=O)[C@@H](Cc2c[nH]c3ccccc23)NC(=O)[C@H](Cc2ccccc2)NC(=O)[C@@H](NC(=O)[C@H](N)Cc2ccccc2)CSSC[C@@H](C(=O)N[C@H](CO)[C@@H](C)O)NC1=O [Octreotide]		failed to respond				
